From ChEMBL document CHEMBL4177582, “Modifications of flexible nonyl chain and nucleobase head group of (+)-erythro-9-(2's-hydroxy-3's-nonyl)adenine [(+)-EHNA] as adenosine deaminase inhibitors” (Bioorg Med Chem, 2017) come the findings set out here.

The structures appear in SMILES notation.

As usually defined, the Ki is the equilibrium dissociation constant of an inhibitor or competing ligand from its target. As a reminder, the half-life is how long it takes for the measured level to halve. Higher therefore signals slow decline.

Series [1] addresses T1, Adenosine deaminase (Bos taurus, UniProt P56658).
T1 sequence (P56658 whole entry): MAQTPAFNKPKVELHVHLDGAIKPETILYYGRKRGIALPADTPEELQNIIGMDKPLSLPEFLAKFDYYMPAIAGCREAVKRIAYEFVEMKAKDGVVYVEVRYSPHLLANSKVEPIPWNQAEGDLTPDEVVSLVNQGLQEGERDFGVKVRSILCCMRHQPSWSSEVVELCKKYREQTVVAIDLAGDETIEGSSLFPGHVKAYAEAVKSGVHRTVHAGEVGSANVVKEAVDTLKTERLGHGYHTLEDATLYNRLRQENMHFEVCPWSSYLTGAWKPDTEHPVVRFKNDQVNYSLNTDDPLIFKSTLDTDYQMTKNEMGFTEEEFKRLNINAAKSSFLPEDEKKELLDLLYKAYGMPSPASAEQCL
Nature of the series: Inhibition of bovine adenosine deaminase pre-incubated for 5 mins before adenosine addition.

The nature of series [2]: Drug metabolism in rat liver microsomes assessed as drug recovery pre-incubated at 37 degC for 5 mins before NADPH addition and measured after 30 mins by LC/MS/MS method. It is filed as ADME, microsome. To be noted: read-out: Drug recovery. A general note: Liver microsomes are vesicles of endoplasmic reticulum, rich in cytochrome P450 enzymes.
A short description of series [3]: Half life in mouse liver microsomes pre-incubated at 37 degC for 5 mins before NADPH addition and measured after 30 mins by LC/MS/MS method. It is filed as ADME, microsome.
The nature of series [4]: Drug metabolism in mouse liver microsomes assessed as metabolic turnover rate per 0.125 mg/ml protein pre-incubated at 37 degC for 5 mins before NADPH addition and measured after 30 mins by LC/MS/MS method. In kind it is ADME, microsome. To be noted: 0.5 h.
Series [5] can be described thus: Drug metabolism in rat liver microsomes assessed as drug recovery pre-incubated at 37 degC for 5 mins measured after 30 mins in absence of NADPH by LC/MS/MS method. It is filed as ADME, microsome. To be noted: read-out: Drug recovery.
Series [6] can be described thus: Drug metabolism in human liver microsomes assessed as drug recovery pre-incubated at 37 degC for 5 mins before NADPH addition and measured after 30 mins by LC/MS/MS method. In kind it is ADME, microsome. To be noted: read-out: Drug recovery.
A short description of series [7]: Half life in human liver microsomes pre-incubated at 37 degC for 5 mins before NADPH addition and measured after 30 mins by LC/MS/MS method. In kind it is ADME, microsome.
The nature of series [8]: Drug metabolism in mouse liver microsomes assessed as drug recovery pre-incubated at 37 degC for 5 mins measured after 30 mins in absence of NADPH by LC/MS/MS method. To be noted: read-out: Drug recovery. It is filed as ADME, microsome.
Series [9] is described as follows: Drug metabolism in human liver microsomes assessed as metabolic turnover rate per 0.125 mg/ml protein pre-incubated at 37 degC for 5 mins before NADPH addition and measured after 30 mins by LC/MS/MS method. It is filed as ADME, microsome. To be noted: 0.5 h.
Series [10] can be described thus: Drug metabolism in human liver microsomes assessed as drug recovery pre-incubated at 37 degC for 5 mins measured after 30 mins in absence of NADPH by LC/MS/MS method. To be noted: read-out: Drug recovery. It is filed as ADME, microsome.
A short description of series [11]: Half life in rat liver microsomes pre-incubated at 37 degC for 5 mins before NADPH addition and measured after 30 mins by LC/MS/MS method. It is filed as ADME, microsome.
Series [12] can be described thus: Drug metabolism in rat liver microsomes assessed as metabolic turnover rate per 0.125 mg/ml protein pre-incubated at 37 degC for 5 mins before NADPH addition and measured after 30 mins by LC/MS/MS method. In kind it is ADME, microsome. To be noted: 0.5 h.
Series [13] is described as follows: Drug metabolism in mouse liver microsomes assessed as drug recovery pre-incubated at 37 degC for 5 mins before NADPH addition and measured after 30 mins by LC/MS/MS method. It is filed as ADME, microsome. To be noted: read-out: Drug recovery.

As to `C[C@H](O)[C@@H](CCc1cccc(C(=O)O)c1)n1cnc2c(N)ncnc21`, in series [1] (read-out: Ki), the Ki was 53 nM.

Turning to `C[C@H](O)[C@@H](CCc1cccc(-c2cnccn2)c1)n1cnc2c(N)ncnc21`, the remaining at 0.5 h in series [2] came to 90%; in series [5], 85%; in series [6], 71%; in series [8], 94%; in series [10] it was 94%; in [13], 57%. For the same compound, the half-life in series [3], in series [7] and in series [11] was above 30 min throughout. The results for the Drug metabolism in series [4], in [9] and in series [12] were 0.16 nmol/min/mg, 0.09 nmol/min/mg and below 0.04 nmol/min/mg, respectively. For the same compound, the inhibition constant (Ki) in series [1] (read-out: Ki) came to 1.9 nM.

In the case of `C[C@H](O)[C@@H](CSc1cccc(C(F)(F)F)c1)n1cnc2c(N)ncnc21`, the remaining at 0.5 h in [2] amounted to 83%; in [5] it was 100%; in [6] it was 83%; in series [8], 100%; in series [10] it was 89%; in [13] it was 43%. Besides, the half-life in series [3] is 25 min; in series [7], above 100 min; in series [11], above 100 min. The Drug metabolism in series [4] stood at 0.22 nmol/min/mg; in [9], 0.05 nmol/min/mg; in [12], 0.05 nmol/min/mg. Also, the Ki in series [1] (read-out: Ki) worked out at 25 nM.

In the case of `C[C@H](O)[C@@H](CCc1cccc(Br)c1)n1cnc2c(N)ncnc21`, the inhibition constant (Ki) in series [1] (read-out: Ki) amounted to 0.6 nM.

Regarding `C[C@H](O)[C@@H](CCc1cccc(-c2ccccn2)c1)n1cnc2c(N)ncnc21`, the remaining at 0.5 h in series [2] is 64%; in [5], 100%; in [6], 82%; in series [8], 100%; in series [10], 91%; in series [13], 58%. Further, the half-life in [3], in series [7] and in series [11] was above 30 min throughout. Moreover, the Drug metabolism in series [4] was found to be 0.15 nmol/min/mg; in series [9], 0.06 nmol/min/mg; in series [12], 0.12 nmol/min/mg. In series [1] (read-out: Ki), the inhibition constant (Ki) is 2.3 nM.

For `C[C@H](O)[C@@H](CCc1cccc(F)c1)n1cnc2c(N)ncnc21`, the inhibitory constant (Ki) in series [1] (read-out: Ki) was determined as 1.6 nM.

For `C[C@H](O)[C@@H](CCc1ccc(C(F)(F)F)cc1)n1ccc2c(N)ncnc21`, the Ki entry in [1] is “Not Active”.

Take `CCc1ccc(CC[C@H]([C@H](C)O)n2cnc3c(N)ncnc32)s1`: the remaining at 0.5 h in series [2] is 58%; in series [5], 95%; in series [6], 76%; in series [8], 90%; in series [10], 95%; in series [13], 64%. The half-life in [3], in [7] and in series [11] was above 30 min each time. In addition, the Drug metabolism came out at 0.11 nmol/min/mg in [4], 0.07 nmol/min/mg in [9] and 0.15 nmol/min/mg in [12]. Further, the inhibition constant (Ki) in series [1] (read-out: Ki) was 2.1 nM.

Consider `C[C@H](O)[C@@H](CCC1CCCCC1)n1cnc2c(N)ncnc21`, for which the remaining at 0.5 h in [2] came out at 19%; in series [5], 94%; in [6], 65%; in series [8], 92%; in series [10], 83%; in series [13], 77%. For the same compound, the half-life in [3] is above 30 min; in series [7], above 30 min; in [11], 13 min. The Drug metabolism in [4] amounted to 0.07 nmol/min/mg; in series [9] it was 0.11 nmol/min/mg; in series [12] it was 0.44 nmol/min/mg. Besides, the inhibitory constant (Ki) in [1] (read-out: Ki) was 1.9 nM.

On to `CC(C)(O)[C@@H](CCc1ccc(C(F)(F)F)cc1)n1cnc2c(N)ncnc21`, for which the Ki in series [1] (read-out: Ki) is 69 nM.

On to `CC(=O)[C@@H](CCc1ccc(C(F)(F)F)cc1)n1cnc2c(N)ncnc21`, for which, in [1], the Ki result is “Not Active”.

As for `C[C@H](O)[C@@H](CCc1cccc(C(N)=O)c1)n1cnc2c(N)ncnc21`, the inhibition constant Ki in series [1] (read-out: Ki) amounted to 2.9 nM.

Turning to `C[C@H](O)[C@@H](CCc1cccc(-c2nccs2)c1)n1cnc2c(N)ncnc21`, the remaining at 0.5 h in series [2] stood at 76%; in series [5], 91%; in series [6], 84%; in [8], 92%; in [10], 100%; in series [13] it was 65%. The half-life in series [3], in [7] and in series [11] was above 30 min each time. The Drug metabolism in series [4] came to 0.1 nmol/min/mg; in series [9], 0.05 nmol/min/mg; in series [12], 0.09 nmol/min/mg. Further, the Ki in series [1] (read-out: Ki) turned out to be 2.6 nM.

For the compound `CCCCSC[C@H]([C@H](C)O)n1cnc2c(N)ncnc21`, the remaining at 0.5 h was determined as 86% in series [2]; 97% in series [5]; 94% in series [6]; 94% in series [8]; 85% in series [10]; 100% in series [13]. Besides, the half-life in series [3], in series [7] and in series [11] was above 30 min each time. Further, the Drug metabolism in series [4] is given as below 0.04 nmol/min/mg; in [9], below 0.04 nmol/min/mg; in series [12], 0.04 nmol/min/mg. Also, the Ki in series [1] (read-out: Ki) worked out at 54 nM.

Regarding `C[C@H](O)[C@@H](CCc1cccc(C(=O)N2CCCC2)c1)n1cnc2c(N)ncnc21`, the inhibition constant Ki in [1] (read-out: Ki) turned out to be 2.2 nM.

Regarding `C[C@H](O)[C@@H](CSc1ccccc1)n1cnc2c(N)ncnc21`, in [1] (read-out: Ki), the inhibitory constant (Ki) came out at 135 nM.

For `C[C@H](O)[C@@H](CCc1ccccc1C(F)(F)F)n1cnc2c(N)ncnc21`, the Ki in [1] (read-out: Ki) turned out to be 6.2 nM.

As to `C[C@H](O)[C@@H](CCc1ccc(C(F)(F)F)cc1)n1ncc2c(N)ncnc21`, in series [1], the Ki result was “Not Active”.

Take `Cc1cccc(SC[C@H]([C@H](C)O)n2cnc3c(N)ncnc32)c1`: the inhibition constant Ki in [1] (read-out: Ki) came out at 49 nM.

Turning to `C[C@H](O)[C@@H](CCc1cccc(C(F)(F)F)c1)n1ncc2c(N)ncnc21`, the inhibitory constant (Ki) entry in series [1] is “Not Active”.

As for `C[C@H](O)[C@@H](CCc1cccc(C(=O)N(C)C)c1)n1cnc2c(N)ncnc21`, in series [1] (read-out: Ki), the Ki is 1.8 nM.

In the case of `C[C@H](O)[C@@H](CCc1cccc(CO)c1)n1cnc2c(N)ncnc21`, the Ki in series [1] (read-out: Ki) was 4.6 nM.

On to `C[C@H](O)[C@@H](CCc1cccc(C(F)(F)F)c1)n1ccc2c(N)ncnc21`, for which the Ki result in [1] is “Not Active”.

With `C[C@H](O)[C@@H](CCc1cccc(C(=O)NC2CCCC2)c1)n1cnc2c(N)ncnc21`, the Ki in series [1] (read-out: Ki) came to 1.8 nM.

Consider `C[C@H](O)[C@@H](CCc1ccc(C(F)(F)F)cc1)n1cnc(C(N)=O)c1`, for which the Ki in series [1] (read-out: Ki) came to 29 nM.

`Cc1ccccc1SC[C@H]([C@H](C)O)n1cnc2c(N)ncnc21`: the Ki in series [1] (read-out: Ki) was determined as 66 nM.
